From US20230302031A1, “Modulators Of Purinergic Receptors and Related Immune Checkpoint For Treating Acute Respiratory Distress Syndrome” (priority 2020, published 2023)

Assays:
[1] = tested on: human monocyte derived macrophages (MDMs); test: IL-1β release from monocyte derived macrophages (MDMs); type: cell-based; details: 100 μM, FIG. 6G
MDMs [2] = type: cell-based, human; details: FIG. 6L, 6M
MDMs [3] = test: IRF5 expression in MDMs (western blot); type: cell-based, human; details: FIG. 6N
[4] = tested on: PMA-differentiated THP1 macrophages; test: LDH release from PMA-differentiated THP1 macrophages; type: cell-based, human; details: treated or not with LPS and ATP; FIG. 5H
MDMs [5] = test: Microarray of human macrophage polarization-specific markers in MDMs; type: cell-based; details: 100 μM, 72 hours, FIG. 6Q
Protocol: MDMS were treated with 100 μM Kaempferol during 72 hours. Then, mRNAs were isolated using RNeasy kit (#74104, Quiagen) and gene expression analyses were performed with Agilent® SurePrint G3 Human GE 8x60K Microarray (Agilent Technologies, AMADID 39494) with the following single-color design. RNAs were labeled with Cy3 using the one-color Agilent labeling kit (Low Input Quick Amp Labeling Kit 5190-2306) adapted for small amount of total RNA (100 ng total RNA per reaction). Hybridization were then performed on microarray using 800 ng of linearly amplified cRNA labeled, following the manufacturer protocol (Agilent SureHyb Chamber; 800 ng of labeled extract; duration of hybridization of 17 hours; 40 μL per array; Temperature of 65° C.). […] Microarray images were analyzed by means of Feature Extraction software version (10.7.3.1) from Agitent technologies. […]
Raw data files from Feature Extraction were imported into R with LIMMA (Smyth, 2004, Statistical applications in Genetics and molecular biology, vol 3, N°1, article 3), an R package from the Bioconductor project, and processed as follow: gMedianSignal data were imported, controls probes were systematically removed, and flagged probes (gisSaturated, glsFeatpopnOL, glsFeatNonUnifOL) were set to NA. […] Normalized data were then analyzed. […]

[6] = tested on: PMA-treated THP1 macrophages; test: IL-10 secretion by PMA-treated THP1 macrophages; type: cell-based, human; details: 100 μM, FIG. 6J
Protocol: (§1) Plasma serum from P2y2^+/+ and P2y2^−/− mice and supernatants harvested from PMA-stimulated THP1 macrophages that were depleted or not for P2Y2 or NLRP3, and/or stimulated with 10 ng/mL LPS during 3 hours and 5 mM ATP during 6 hours or with 20 ng/mL IFNγ, in presence or in absence of 100 μM Suramin, 100 μM OxATP, 100 μM Kaempferol or 100 μM Diquafosol at indicated times were analyzed using western blot or ELISA for IL-1β (Ebioscience) and IL-10 (BD) according to the manufacturers' instructions.

[7] = tested on: PMA-treated THP1 macrophages; test: IL-1β release from LPS+ATP-stimulated PMA-THP1 macrophages (western blot/ELISA); type: cell-based, human; details: 100 μM compound; 10 ng/mL LPS 3 hours + 5 mM ATP 6 hours; FIG. 6E, 6I
Protocol: Human THP-1 cells were cultured in RPMI 1640 media, supplemented with 10% FBS and differentiated by treatment for 3 hours with 100 nM phorbol-12-myristate-13-acetate (PMA, Invivogen). After 2 days, macrophage THP-1 cells were stimulated first 3 hours with ultrapure LPS from E. coli (10 ng/ml, LPS) and then stimulated for 6 hours with ATP (5 mM, Sigma) or treated with 50 ng or 20 ng of IFNg during 24 or 12 hours as indicated. Then, supernatants and cells were collected for western blot analysis.
Cells or supernatant were lysed in appropriated buffer (250 mM NaCl, 0.1% NP-40, 5 mM EDTA, 10 mM Na3VO4, 10 mM NaF, 5 mM DTT, 3 mM Na4P2O7, 1 mM EGTA, 10 mM Glycerol phosphate, 10 mM Tris-Hcl (pH=7.5) and the protease and phosphatase inhibitors (Roche)). Equal amount of supernatant or 10-40 μg of protein extracts were run on 4-12% or 10% SDS-PAGE and transferred at 4° C. onto a nitrocellulose membrane (0.2 Micron). After incubation for 2 hours at room temperature with 5% nonfat milk or BSA (Bovine Serum Albumine) in Tris-buffered saline and 0.1% Tween 20 (TBS-Tween), membranes were incubated with primary antibody at 4° C. overnight. […] The primary antibodies against. […] Western blots shown are representative of at least of three independent experiments.
as §1

MDMs [8] = test: IL-10 secretion by MDMs; type: cell-based, human; details: 100 μM, FIG. 6K
SARS-CoV-2 = details: reference 50; cited from earlier work
[9] = tested on: COVID-19 patients with severe inflammatory failure; details: early administration; retrospective study, reference 51; cited from earlier work

**Q.** Which results are given for `O=c1c(O)c(-c2ccc(O)cc2)oc2cc(O)cc(O)c12` [Kaempferol]?
**A.** IL-1β release [1]: increased IL-1β release; membrane expression of CD163 (MDMs [2]): diminished membrane expression of anti-inflammatory macrophage activation marker CD163; expression of IRF5 (MDMs [3]): increased expression of the pro-inflammatory transcription factor IFN regulatory factor 5 (IRF5); LDH release (cell death marker) [4]: released the cell death marker, lactate dehydrogenase (LDH); known human markers of macrophage activation induced (MDMs [5]): 90%; secretion of IL-10 [6]: reduced secretion of the immunosuppressive cytokine interleukin-10 (IL-10); IL-1β release [7]: increased IL-1β release; secretion of IL-10 (MDMs [8]): reduced secretion of the immunosuppressive cytokine interleukin-10 (IL-10)

**Q.** For Ivermectin, which “replication of SARS-CoV-2 in vitro” value (SARS-CoV-2) is on record?
**A.** inhibit the replication of SARS-CoV-2 in vitro

**Q.** For anakinra: IL-1 receptor antagonist, which “prognosis of COVID-19 patients” value [9] is on record?
**A.** significantly improved prognosis of COVID-19 patients with severe inflammatory failure
